This note sets out measurements from ChEMBL document CHEMBL1201862, “PubChem BioAssay data set” (2004).

In assay [1] the target is T1, Histone-lysine N-methyltransferase NSD2 (Homo sapiens, UniProt O96028).
T1 sequence (O96028 whole entry): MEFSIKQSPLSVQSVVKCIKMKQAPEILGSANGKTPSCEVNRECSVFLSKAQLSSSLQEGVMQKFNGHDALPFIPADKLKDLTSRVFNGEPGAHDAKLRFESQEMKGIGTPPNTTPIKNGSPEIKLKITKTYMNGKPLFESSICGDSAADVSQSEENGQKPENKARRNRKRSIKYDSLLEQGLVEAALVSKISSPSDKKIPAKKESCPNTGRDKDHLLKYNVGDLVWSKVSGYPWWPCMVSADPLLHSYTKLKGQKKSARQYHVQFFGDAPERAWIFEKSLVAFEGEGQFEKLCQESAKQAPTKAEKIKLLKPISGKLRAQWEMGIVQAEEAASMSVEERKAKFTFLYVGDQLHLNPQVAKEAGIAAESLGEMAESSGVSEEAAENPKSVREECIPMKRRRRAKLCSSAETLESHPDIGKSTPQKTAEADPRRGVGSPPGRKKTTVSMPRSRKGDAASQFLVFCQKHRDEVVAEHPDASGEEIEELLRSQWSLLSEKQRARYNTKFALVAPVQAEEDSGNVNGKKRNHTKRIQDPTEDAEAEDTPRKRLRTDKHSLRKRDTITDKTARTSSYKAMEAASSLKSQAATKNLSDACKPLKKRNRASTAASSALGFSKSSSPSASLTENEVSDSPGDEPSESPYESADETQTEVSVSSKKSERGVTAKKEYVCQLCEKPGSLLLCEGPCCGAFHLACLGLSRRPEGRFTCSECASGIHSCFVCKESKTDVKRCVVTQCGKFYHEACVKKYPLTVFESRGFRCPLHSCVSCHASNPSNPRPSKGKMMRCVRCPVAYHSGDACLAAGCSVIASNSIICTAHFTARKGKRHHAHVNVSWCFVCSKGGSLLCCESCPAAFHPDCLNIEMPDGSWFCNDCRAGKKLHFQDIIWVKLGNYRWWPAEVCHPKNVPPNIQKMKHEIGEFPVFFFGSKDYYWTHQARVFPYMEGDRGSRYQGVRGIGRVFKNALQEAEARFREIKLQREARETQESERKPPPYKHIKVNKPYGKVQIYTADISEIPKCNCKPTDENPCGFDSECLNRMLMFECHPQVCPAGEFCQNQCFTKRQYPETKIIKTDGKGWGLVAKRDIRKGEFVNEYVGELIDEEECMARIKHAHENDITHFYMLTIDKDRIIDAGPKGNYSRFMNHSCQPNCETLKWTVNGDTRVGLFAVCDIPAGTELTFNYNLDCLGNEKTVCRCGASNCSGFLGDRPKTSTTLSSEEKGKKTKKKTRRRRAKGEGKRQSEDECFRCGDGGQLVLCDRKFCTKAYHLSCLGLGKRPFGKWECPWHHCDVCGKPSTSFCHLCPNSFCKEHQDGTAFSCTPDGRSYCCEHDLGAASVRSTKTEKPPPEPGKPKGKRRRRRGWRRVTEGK
The assay is classed as biochemical.

Assay [2] in a line: growth suppression of beta-catenin-knockout colon cells, dose response, cell-based, HCT116, human colon tumor (AID 1045).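 Also: HCT116 colon tumor cells with beta catenin knocked out; cells exposed to compound for 60 hours.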 Type of assay: functional.
The target of assay [3] is ATP-dependent molecular chaperone HSP82 (Candida albicans (strain WO-1) (Yeast), UniProt C4YTQ8). In words: loss of DOC-induced GRE-beta-galactosidase reporter signal, dose response, Hsp90 inhibitor project, S. cerevisiae, luminescence (AID 2400).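 Also: beta-galactosidase luminescence from glucocorticoid response element reporter as proxy for Hsp90 function; inhibitor potency where signal loss means Hsp90 inhibition.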 The assay is classed as functional, cell-based.
The target of assay [4] is Serine/threonine-protein phosphatase PP1-alpha catalytic subunit (Homo sapiens, UniProt P62136). Description: PP1 phosphatase inhibitors, dose response, biochemical, fluorescence (AID 2394).
In assay [5] the target is Photoreceptor-specific nuclear receptor (Homo sapiens, UniProt Q9Y5X4). Type of assay: functional, cell-based.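 Also: CHO-S cells with Gal4-NCOR and VP16-NR2E3 two-hybrid luciferase reporter.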
In assay [6] the target is T2, Apoptotic protease-activating factor 1 (Homo sapiens, UniProt O14727).
T2 sequence (O14727 whole entry): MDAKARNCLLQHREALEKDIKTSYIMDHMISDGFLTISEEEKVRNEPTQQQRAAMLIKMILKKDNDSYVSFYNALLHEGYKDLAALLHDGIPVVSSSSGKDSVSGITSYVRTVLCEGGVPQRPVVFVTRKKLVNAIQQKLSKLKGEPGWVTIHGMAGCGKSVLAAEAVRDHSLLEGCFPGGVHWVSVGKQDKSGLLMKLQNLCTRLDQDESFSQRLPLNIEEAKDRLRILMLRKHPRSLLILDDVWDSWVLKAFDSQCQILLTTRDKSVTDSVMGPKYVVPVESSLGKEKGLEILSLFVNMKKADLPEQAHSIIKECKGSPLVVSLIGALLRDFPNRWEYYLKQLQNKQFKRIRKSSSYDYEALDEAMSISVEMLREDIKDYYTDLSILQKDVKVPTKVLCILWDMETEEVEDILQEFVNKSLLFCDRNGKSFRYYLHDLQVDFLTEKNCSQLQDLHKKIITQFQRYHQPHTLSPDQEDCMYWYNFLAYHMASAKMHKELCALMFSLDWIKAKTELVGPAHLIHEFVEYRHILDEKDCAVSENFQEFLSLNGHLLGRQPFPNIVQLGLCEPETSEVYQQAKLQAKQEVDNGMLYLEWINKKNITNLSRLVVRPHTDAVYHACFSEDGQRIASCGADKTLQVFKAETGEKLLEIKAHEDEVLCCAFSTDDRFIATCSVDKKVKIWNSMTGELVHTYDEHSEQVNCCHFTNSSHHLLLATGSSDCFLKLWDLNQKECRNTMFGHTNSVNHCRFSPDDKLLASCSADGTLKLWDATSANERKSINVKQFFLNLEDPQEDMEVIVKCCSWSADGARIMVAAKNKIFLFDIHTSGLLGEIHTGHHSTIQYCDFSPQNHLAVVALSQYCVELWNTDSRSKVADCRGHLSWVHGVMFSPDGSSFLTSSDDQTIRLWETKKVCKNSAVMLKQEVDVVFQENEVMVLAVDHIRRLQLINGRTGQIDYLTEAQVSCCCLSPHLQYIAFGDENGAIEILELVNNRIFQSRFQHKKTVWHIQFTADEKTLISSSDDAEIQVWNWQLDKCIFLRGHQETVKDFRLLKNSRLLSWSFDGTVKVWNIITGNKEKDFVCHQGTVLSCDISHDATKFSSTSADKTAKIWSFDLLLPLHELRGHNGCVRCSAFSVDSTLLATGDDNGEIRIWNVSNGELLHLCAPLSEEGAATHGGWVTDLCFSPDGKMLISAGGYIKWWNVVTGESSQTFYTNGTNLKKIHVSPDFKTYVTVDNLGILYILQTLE
Type of assay: functional.

Assay [7] concerns the target Mitochondrial peptide methionine sulfoxide reductase (Bos taurus, UniProt P54149). The assay is classed as functional.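 Also: absorbance read-out, biochemical high-throughput dose-response screen for MsrA inhibitors, confirmatory; recombinant bovine MsrA coupled to E. coli TrxB with NADPH and selenocystamine; potency is for inhibitors of MsrA activity on DMSO substrate.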

Calls of active or inactive are those of the source.

Chain of Mitochondrial peptide methionine sulfoxide reductase (P54149 whole entry): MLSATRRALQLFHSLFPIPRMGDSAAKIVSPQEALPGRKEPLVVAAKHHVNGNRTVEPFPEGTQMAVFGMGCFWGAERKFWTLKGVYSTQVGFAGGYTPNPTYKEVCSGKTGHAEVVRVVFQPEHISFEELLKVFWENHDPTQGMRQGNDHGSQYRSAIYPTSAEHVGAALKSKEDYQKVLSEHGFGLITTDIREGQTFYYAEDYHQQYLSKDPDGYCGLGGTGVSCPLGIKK
Chain of ATP-dependent molecular chaperone HSP82 (C4YTQ8 whole entry): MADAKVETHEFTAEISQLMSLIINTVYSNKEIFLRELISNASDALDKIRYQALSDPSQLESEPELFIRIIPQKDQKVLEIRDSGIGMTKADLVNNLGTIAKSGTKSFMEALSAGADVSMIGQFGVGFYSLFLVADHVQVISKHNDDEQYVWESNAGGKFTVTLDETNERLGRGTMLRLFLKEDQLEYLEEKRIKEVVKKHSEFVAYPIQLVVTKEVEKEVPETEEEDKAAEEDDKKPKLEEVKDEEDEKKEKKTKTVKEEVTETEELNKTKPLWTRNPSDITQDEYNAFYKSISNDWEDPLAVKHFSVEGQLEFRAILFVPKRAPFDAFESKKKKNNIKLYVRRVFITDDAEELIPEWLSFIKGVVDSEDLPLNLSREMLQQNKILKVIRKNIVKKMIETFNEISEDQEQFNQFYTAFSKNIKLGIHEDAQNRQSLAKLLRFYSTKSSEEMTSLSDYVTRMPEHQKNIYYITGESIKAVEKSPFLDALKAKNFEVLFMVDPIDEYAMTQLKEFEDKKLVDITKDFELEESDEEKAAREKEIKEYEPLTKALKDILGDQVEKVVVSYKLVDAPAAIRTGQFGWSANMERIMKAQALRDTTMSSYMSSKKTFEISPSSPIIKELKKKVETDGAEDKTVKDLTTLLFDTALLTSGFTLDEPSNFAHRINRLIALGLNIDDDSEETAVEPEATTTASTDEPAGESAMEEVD
Chain of Serine/threonine-protein phosphatase PP1-alpha catalytic subunit (P62136 whole entry, the tested form may be a part): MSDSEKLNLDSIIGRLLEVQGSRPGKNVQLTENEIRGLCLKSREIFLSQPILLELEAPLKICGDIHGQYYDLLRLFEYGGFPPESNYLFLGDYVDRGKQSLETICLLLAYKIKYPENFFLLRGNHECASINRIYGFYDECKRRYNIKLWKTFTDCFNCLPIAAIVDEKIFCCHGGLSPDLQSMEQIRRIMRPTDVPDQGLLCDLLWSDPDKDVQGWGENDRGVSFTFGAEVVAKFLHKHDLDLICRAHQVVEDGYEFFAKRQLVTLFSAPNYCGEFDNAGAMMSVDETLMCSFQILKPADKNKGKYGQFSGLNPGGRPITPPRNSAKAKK
Chain of Photoreceptor-specific nuclear receptor (Q9Y5X4 whole entry, the tested form may be a part): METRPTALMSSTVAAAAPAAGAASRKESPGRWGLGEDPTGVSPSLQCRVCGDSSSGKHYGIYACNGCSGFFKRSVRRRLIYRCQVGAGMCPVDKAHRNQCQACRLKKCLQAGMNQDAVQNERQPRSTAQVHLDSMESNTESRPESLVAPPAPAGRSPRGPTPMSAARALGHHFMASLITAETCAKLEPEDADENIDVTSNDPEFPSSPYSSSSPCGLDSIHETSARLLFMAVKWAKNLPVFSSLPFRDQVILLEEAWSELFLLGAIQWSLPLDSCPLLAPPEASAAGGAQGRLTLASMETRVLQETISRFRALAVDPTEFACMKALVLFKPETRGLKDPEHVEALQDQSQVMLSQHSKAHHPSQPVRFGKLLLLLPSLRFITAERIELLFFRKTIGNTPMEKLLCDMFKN

With `Cc1ccc(NC2=CC(=O)C(=O)c3ccccc32)cc1`, the AC50 (commonly the midpoint of the concentration-response curve, whichever way the signal moves) in assay [1] was 13 µM (active). Also, the figures for the half-maximal effective concentration (EC50) in assay [2] and in assay [3] were 4.52 µM (active) and 40.7 µM (active), respectively.

Take `O=C(O)c1ccc(S(=O)(=O)/N=C2\C=C(Nc3ccccc3F)C(=O)c3ccccc32)cc1`: the half-maximal inhibitory concentration (IC50) – broadly, the concentration at which inhibition is half-maximal – was 15.5 µM (not active) in assay [4], 12.2 µM (inactive) in assay [5], 3 µM (active) in assay [6] and 14.2 µM (inactive) in assay [7].
